The text below walks through data of paper PMC7730452, “Citrullination-Resistant LL-37 Is a Potent Antimicrobial Agent in the Inflammatory Environment High in Arginine Deiminase Activity” (International Journal of Molecular Sciences, 2020).

In brackets after ≈: the same amount, converted by molar mass. Like-named read-outs stand apart in the source and are kept apart here.

Data set [1] concerns HaCaT cells. In words: LDH release cytotoxicity assay. The format is cell-based, human. To be noted: 24 h, n = 2. On the procedure:
The cell line of human immortalized keratinocytes (HaCaT) was obtained from American Type Culture Collection (ATCC, Manassas, VA, USA) and cultured in DMEM (Gibco, Life Technologies, Paisley, UK) supplemented with 10% heat-inactivated fetal bovine serum (FBS) and PEST (100 U/mL penicillin and 100 U/mL streptomycin) at 37 °C in humidified 5% CO2 atmosphere. Cells were passaged every 4–5 days. To assess the effect of peptides on the integrity of the plasma membrane, the LDH release assay was performed using the CytoTox96 nonradioactive cytotoxicity assay kit (Promega, Madison, WI, USA) according to the manufacturer’s instructions. Cytotoxicity was calculated with the formula: % cytotoxicity = 100 × (experimental LDH release/maximum LDH release), where maximum LDH release occurs after the addition of lysis solution (Triton X-100). Relative amounts of LDH release were measured (absorbance at 490 nm) using FlexStation 3 Multimode Microplate Reader (Molecular Device, Wokingham, UK). All assays were performed in duplicate.

In data set [2] the target is cathepsin G (Homo sapiens, UniProt P08311). The protocol: (§1) After incubation samples were immediately frozen at −80 °C. Samples were separated on SDS-PAGE under denaturing condition in 4–16% gels. After separation, the gels underwent colloid Coomassie staining.
In data set [3] the target is V8 protease (Staphylococcus aureus, UniProt P0C1U8). The experiment in a line: Degradation by protease, SDS-PAGE. To be noted: 5 μg peptide, 0.05 μg protease, PBS, 25 μL, 37 °C, 1 h and 18 h, Coomassie. On the procedure:
as §1

The target of data set [4] is aureolysin (Staphylococcus aureus, UniProt P81177). In words: Degradation by protease, SDS-PAGE. The conditions noted are these: 5 μg peptide, 0.05 μg protease, PBS, 25 μL, 37 °C, 1 h and 18 h, Coomassie. On the procedure:
as §1

For data set [5] the following is noted: cited from earlier work. The source says: The slower hydrolysis rate of homoarginine-containing peptides compared with their arginine-containing counterparts depend ...
The test system of data set [6] is venous leg ulcers. The conditions noted are these: patients with venous leg ulcers; cited from earlier work. The text has this: Current research is partly focused on peptide-based compounds.
The test system of data set [7] is E. coli. In kind it is cell-based, Escherichia coli ATCC 25922. On the procedure: (§2) Escherichia coli ATCC 25922 and Pseudomonas aeruginosa (clinical isolate) were inoculated from stocks into 20 mL LB Broth Lennox, while Staphylococcus aureus Δaur (8325-4 Δaur) into 20 mL TSB and grown overnight at 37 °C under constant rotation (180 rpm) to a mid-logarithmic growth phase. Then they were centrifuged at 5000× g for 5 min, washed in PBS, and resuspended in PBS to the desired OD (600 nm).
(§3) Mueller-Hinton broth (MHB, Sigma-Aldrich) was used as the working medium for all bacterial strains. Briefly, inoculum was prepared from freshly grown cultures of bacteria being at their exponential phase of growth. Each well of 96-well plates containing 100 μL of serially diluted peptides in PBS at desired concentration was inoculated with 100 μL of 1 × 10^5 (CFU) mL^−1 of bacterial suspensions. Then, plates were incubated overnight at 37 °C and absorbance was read at 590 nm in a Flex Station 3 multi-mode microplate reader (Molecular Devices). An absorbance reading in wells without a peptide representing unrestrained bacterial growth was taken as positive control (100% bacterial survival). Readings in wells without bacteria were taken as negative controls. All measurements were run in triplicates.

The subject of data set [8] is P. aeruginosa. The format is cell-based, Pseudomonas aeruginosa (clinical isolate). The protocol: as §2, §3
Data set [9] addresses neutrophil elastase (Homo sapiens, UniProt P08246). The conditions noted are these: 5 μg peptide, 0.05 μg protease, PBS, 25 μL, 37 °C, 1 h and 18 h; SDS-PAGE, Coomassie. The protocol: as §1
Data set [10] addresses recombinant human PAD4 (Homo sapiens, UniProt Q9UM07).
Protocol: PAD4 activity was determined on N-α-benzoyl-L-arginine ethyl ester hydrochloride (BAEE) substrate with colorimetric assay [33].
Citrullination was terminated by snap-freezing the samples.
Reaction was terminated by addition of TFA (final concentration 0.1%) (Sigma) and samples were analyzed via HPLC. Separation was achieved on a reverse-phase column Aeris XB-C18, 3.6 μm, 4.6/150 (Phenomenex) connected to ÄKTAmicro (GE Healthcare). Peptides were eluted in the gradient of Phase A (0.1% TFA in water) and Phase B (80% acetonitrile, 0.08% TFA in water) and monitored at 215 nm.

Sequence of aureolysin (P81177 209-509): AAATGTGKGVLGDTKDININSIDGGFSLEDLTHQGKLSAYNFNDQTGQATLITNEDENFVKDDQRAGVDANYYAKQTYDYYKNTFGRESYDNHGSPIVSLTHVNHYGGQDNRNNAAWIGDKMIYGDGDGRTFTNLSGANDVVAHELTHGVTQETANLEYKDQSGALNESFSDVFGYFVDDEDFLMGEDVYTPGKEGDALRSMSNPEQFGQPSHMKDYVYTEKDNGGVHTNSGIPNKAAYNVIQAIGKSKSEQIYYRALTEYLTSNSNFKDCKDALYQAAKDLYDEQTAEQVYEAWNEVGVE
Sequence of V8 protease (P0C1U8 69-336): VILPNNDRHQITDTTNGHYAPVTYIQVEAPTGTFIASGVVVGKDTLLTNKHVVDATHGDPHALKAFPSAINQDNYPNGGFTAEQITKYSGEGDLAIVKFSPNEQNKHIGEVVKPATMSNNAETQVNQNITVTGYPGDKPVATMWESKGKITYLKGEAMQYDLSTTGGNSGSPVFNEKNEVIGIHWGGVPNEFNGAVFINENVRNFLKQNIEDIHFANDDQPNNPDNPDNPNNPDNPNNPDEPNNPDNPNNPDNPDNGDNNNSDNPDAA
Sequence of cathepsin G (P08311 21-255): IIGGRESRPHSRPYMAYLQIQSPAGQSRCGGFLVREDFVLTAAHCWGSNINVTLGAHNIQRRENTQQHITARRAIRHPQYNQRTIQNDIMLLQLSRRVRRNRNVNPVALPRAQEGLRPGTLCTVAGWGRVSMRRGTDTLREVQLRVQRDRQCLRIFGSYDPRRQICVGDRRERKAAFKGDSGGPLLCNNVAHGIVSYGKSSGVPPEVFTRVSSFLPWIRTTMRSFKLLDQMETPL
Sequence of recombinant human PAD4 (Q9UM07 whole entry): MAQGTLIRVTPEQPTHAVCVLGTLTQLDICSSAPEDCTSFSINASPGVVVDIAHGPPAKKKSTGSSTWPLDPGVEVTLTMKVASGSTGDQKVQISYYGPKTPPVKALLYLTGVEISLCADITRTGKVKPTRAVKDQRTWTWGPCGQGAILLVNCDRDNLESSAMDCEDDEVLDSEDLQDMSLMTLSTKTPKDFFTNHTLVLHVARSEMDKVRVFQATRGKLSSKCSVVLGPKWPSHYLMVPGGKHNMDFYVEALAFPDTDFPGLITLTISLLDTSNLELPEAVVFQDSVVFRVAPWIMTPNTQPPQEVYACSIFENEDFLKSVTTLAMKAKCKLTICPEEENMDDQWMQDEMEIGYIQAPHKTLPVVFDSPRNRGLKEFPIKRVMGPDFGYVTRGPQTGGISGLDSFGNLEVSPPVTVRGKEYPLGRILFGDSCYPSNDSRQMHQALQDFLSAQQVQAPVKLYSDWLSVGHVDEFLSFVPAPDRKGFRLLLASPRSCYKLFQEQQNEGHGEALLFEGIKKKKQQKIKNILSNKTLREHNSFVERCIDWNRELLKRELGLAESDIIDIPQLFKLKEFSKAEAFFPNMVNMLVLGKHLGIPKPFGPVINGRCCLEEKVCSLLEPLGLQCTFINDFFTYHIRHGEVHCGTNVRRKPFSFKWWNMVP
Sequence of neutrophil elastase (P08246 30-267): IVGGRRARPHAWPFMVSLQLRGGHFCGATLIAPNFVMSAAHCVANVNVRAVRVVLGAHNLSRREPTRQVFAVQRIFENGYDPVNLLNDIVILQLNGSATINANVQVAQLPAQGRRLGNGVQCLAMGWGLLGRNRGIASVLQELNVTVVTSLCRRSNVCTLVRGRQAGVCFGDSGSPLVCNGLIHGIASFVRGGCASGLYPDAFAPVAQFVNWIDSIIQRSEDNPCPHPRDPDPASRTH

Turning to `CC[C@H](C)[C@H](NC(=O)[C@H](CCCCN)NC(=O)[C@H](CCC(=O)O)NC(=O)[C@H](CCCCN)NC(=O)[C@H](CO)NC(=O)[C@H](CCCCN)NC(=O)[C@H](CCCNC(=N)N)NC(=O)[C@H](Cc1ccccc1)NC(=O)[C@H](Cc1ccccc1)NC(=O)[C@H](CC(=O)O)NC(=O)CNC(=O)[C@H](CC(C)C)NC(=O)[C@@H](N)CC(C)C)C(=O)NCC(=O)N[C@@H](CCCCN)C(=O)N[C@@H](CCC(=O)O)C(=O)N[C@@H](Cc1ccccc1)C(=O)N[C@@H](CCCCN)C(=O)N[C@@H](CCCNC(=N)N)C(=O)N[C@H](C(=O)N[C@H](C(=O)N[C@@H](CCC(N)=O)C(=O)N[C@@H](CCCNC(=N)N)C(=O)N[C@H](C(=O)N[C@@H](CCCCN)C(=O)N[C@@H](CC(=O)O)C(=O)N[C@@H](Cc1ccccc1)C(=O)N[C@@H](CC(C)C)C(=O)N[C@@H](CCCNC(=N)N)C(=O)N[C@@H](CC(N)=O)C(=O)N[C@@H](CC(C)C)C(=O)N[C@H](C(=O)N1CCC[C@H]1C(=O)N[C@@H](CCCNC(=N)N)C(=O)N[C@H](C(=O)N[C@@H](CCC(=O)O)C(=O)N[C@@H](CO)C(=O)O)[C@@H](C)O)C(C)C)[C@@H](C)CC)C(C)C)[C@@H](C)CC` [LL-37], the “Toxicity, LDH release” value in data set [1] (peptide 10 μg/mL) is on record as “did not compromise the membrane permeability”; in [1] (peptide 25 μg/mL), “did not compromise the membrane permeability”; in data set [1] (peptide 75 μg/mL) it was “low, but still significant, release of LDH”. In addition, the “Degradation by cathepsin G” value in data set [2] (5 μg peptide, 0.5 μg protease, PBS, 25 μL, 37 °C, 1 h and 18 h, SDS-PAGE, Coomassie) is “did not differ”. The “Degradation by V8 protease” value in data set [3] was “similarly sensitive”. Besides, in data set [4], the Degradation by aureolysin result is listed as “similarly sensitive”. In addition, in [5], the “Degradation in NETs” value was “gradually degraded”. For the same molecule, the Safety and tolerability entry in [6] is “no safety or tolerability concerns were noted”.
Take `CC[C@H](C)[C@H](NC(=O)[C@H](CCCCN)NC(=O)[C@H](CCC(=O)O)NC(=O)[C@H](CCCCN)NC(=O)[C@H](CO)NC(=O)[C@H](CCCCN)NC(=O)[C@H](CCCCNC(=N)N)NC(=O)[C@H](Cc1ccccc1)NC(=O)[C@H](Cc1ccccc1)NC(=O)[C@H](CC(=O)O)NC(=O)CNC(=O)[C@H](CC(C)C)NC(=O)[C@@H](N)CC(C)C)C(=O)NCC(=O)N[C@@H](CCCCN)C(=O)N[C@@H](CCC(=O)O)C(=O)N[C@@H](Cc1ccccc1)C(=O)N[C@@H](CCCCN)C(=O)N[C@@H](CCCCNC(=N)N)C(=O)N[C@H](C(=O)N[C@H](C(=O)N[C@@H](CCC(N)=O)C(=O)N[C@@H](CCCCNC(=N)N)C(=O)N[C@H](C(=O)N[C@@H](CCCCN)C(=O)N[C@@H](CC(=O)O)C(=O)N[C@@H](Cc1ccccc1)C(=O)N[C@@H](CC(C)C)C(=O)N[C@@H](CCCCNC(=N)N)C(=O)N[C@@H](CC(N)=O)C(=O)N[C@@H](CC(C)C)C(=O)N[C@H](C(=O)N1CCC[C@H]1C(=O)N[C@@H](CCCCNC(=N)N)C(=O)N[C@H](C(=O)N[C@@H](CCC(=O)O)C(=O)N[C@@H](CO)C(=O)O)[C@@H](C)O)C(C)C)[C@@H](C)CC)C(C)C)[C@@H](C)CC` [hArg-LL-37]: the “MIC (minimal inhibitory concentration)” value in data set [7] and in data set [8] was 50 µg/mL (≈ 11 µM) in each case. For the same molecule, in data set [2], the “Degradation by cathepsin G” value is “did not differ”. For the same molecule, in data set [9], the “Degradation by neutrophil elastase” value is “degraded more rapidly by neutrophil elastase than LL-37”. The “Degradation by V8 protease” value in [3] was “similarly sensitive”. For the same molecule, the Degradation by aureolysin entry in data set [4] is “similarly sensitive”. The “Modification (citrullination) by PAD4” value in [10] is reported as “did not evidently modify”.
